System: PMA-induced release of HB-EGF from THP-1 cells
Test: ELISA-based HB-EGF release assay, PMA-stimulated THP-1 cells
Type: cell-based
Settings: Homo sapiens, murine (m) and chimeric (ch) antibodies 3 μg/ml, Batimastat 10 μM, PMA 25 ng/ml, 6 hours
Description: In the following study, ELISA-based HB-EGF release assays were performed to analyze the inhibitory effects of the antibodies of the present disclosure on PMA-induced release of endogenous HB-EGF from human THP-1 monocytic cells.
In brief, on day 1, Nunc black MaxiSorp® 96-well plates (Thermo Fisher Scientific, USA) were coated for 7 hours with 100 μl per well of rat anti-human HB-EGF capture antibody (provided as part of the DuoSet ELISA kit) at 2 μg/ml TBS at room temperature. Capture antibody solution was removed and MaxiSorp® plates were blocked with 300 μl per well of TBS, 1% BSA at room temperature for 3 hours. […]
Subsequently, cells (except those for unstimulated controls) were stimulated with 20 μl per well of PMA (Sigma-Aldrich, USA) at 150 ng/ml in growth medium for a final concentration of 25 ng/ml at 37° C., 5% CO2 for 6 hours. […] Using an infinite M1000 (Tecan Group, Switzerland) microplate reader, the fluorescence of each well was collected at an excitation wavelength of 435 nm and an emission wavelength of 555 nm.

Q: `CNC(=O)[C@H](Cc1ccccc1)NC(=O)[C@H](CC(C)C)[C@H](CSc1cccs1)C(=O)NO` [Batimastat] was tested. Which inhibition at 10 µM did it give?
A: 98.9%

From patent US20240174744A1, “METHODS OF TREATMENT USING PROTEIN BINDERS TO IRHOM2 EPITOPES” (SCIRHOM GMBH, priority 2021, published 2024)
